Measurements taken from US11446287B2, “Compounds and methods for EP300 or CBP modulation and indications therefor” (Opna Immuno-Oncology SA, priority 2019, dated 2022).

Each compound was assayed against T1, Recombinant human EP300 containing the bromodomain (EP300-BD (1040-1161)) (Homo sapiens, UniProt Q09472) (assay: EP300 Alphascreen binding assay).
T1 construct: Recombinant human EP300 bromodomain (EP300-BD (1040-1161)); made in house; host or cells: E. coli BL21-CodonPlus (DE3), modified pET vector
T1 sequence (Q09472 1040-1161): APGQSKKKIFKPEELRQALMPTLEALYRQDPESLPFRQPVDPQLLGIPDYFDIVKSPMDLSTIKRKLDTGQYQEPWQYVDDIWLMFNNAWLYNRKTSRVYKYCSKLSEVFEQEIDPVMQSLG
In short: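 Displacement of a biotinylated acetyl-K56 histone H3 peptide from the N-His bromodomain construct (1040-1161) measured by AlphaScreen proximity, beads at 7.5 μg/ml final, read 60 min after addition. Protein, peptide and compound first incubated 1 h at room temperature, pH 7.5 HEPES buffer; IC50 by four-parameter logistic fit.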

Cc1noc(C)c1-c1cnc2c(c1)c(-c1ccc(C(=O)O)cc1OC(F)(F)F)cn2C1CCOCC1 [P-0226, 4-(5-(3,5-dimethylisoxazol-4-yl)-1-(tetrahydro-2H-pyran-4-yl)-1H-pyrrolo[2,3-b]pyridin-3-yl)-3-(trifluoromethoxy)benzoic acid] and Cc1noc(C)c1-c1cnc2c(c1)c(-c1ccc(C(=O)O)cc1OC(F)(F)F)cn2C1CCS(=O)(=O)CC1 [P-0212, 4-(5-(3,5-dimethylisoxazol-4-yl)-1-(1,1-dioxidotetrahydro-2H-thiopyran-4-yl)-1H-pyrrolo[2,3-b]pyridin-3-yl)-3-(trifluoromethoxy)benzoic acid] fall in the same range of IC50: 0.1 to 1000 nM for the first, 0.1 to 1000 nM for the second.

CCOc1cc(C(=O)O)cc(F)c1-n1cc(-c2ccccc2)c2ncc(-c3c(C)noc3C)cc21 [P-0205, 4-(6-(3,5-dimethylisoxazol-4-yl)-3-phenyl-1H-pyrrolo[3,2-b]pyridin-1-yl)-3-ethoxy-5-fluorobenzoic acid] and COc1cc(C(=O)O)cc(OC)c1-n1cc(-c2ccccc2)c2ncc(-c3c(C)noc3C)cc21 [P-0220, 4-(6-(3,5-dimethylisoxazol-4-yl)-3-phenyl-1H-pyrrolo[3,2-b]pyridin-1-yl)-3,5-dimethoxybenzoic acid] fall in the same range of IC50: 0.1 to 1000 nM for the first, 0.1 to 1000 nM for the second.

First: COc1ccc(C(=O)O)cc1-c1cn(C(C)(c2ccccn2)c2ccccn2)c2cc(-c3c(C)noc3C)cnc12 [P-0172, 3-(1-(1,1-di(pyridin-2-yl)ethyl)-6-(3,5-dimethylisoxazol-4-yl)-1H-pyrrolo[3,2-b]pyridin-3-yl)-4-methoxybenzoic acid]
Second: COc1cc(C(=O)O)ccc1-c1c(C(F)(F)F)n([C@@H](C)c2ccccn2)c2cc(-c3c(C)noc3C)cnc12 [P-0236, (S)-4-(6-(3,5-dimethylisoxazol-4-yl)-1-(1-(pyridin-2-yl)ethyl)-2-(trifluoromethyl)-1H-pyrrolo[3,2-b]pyridin-3-yl)-3-methoxybenzoic acid]
The IC50 of the first is higher: 1000 to 8000 nM for the first, 0.1 to 1000 nM for the second.

First: Cc1noc(C)c1-c1cnc2c(-c3ccc(C(=O)O)c(F)c3)c(C(F)(F)F)n([C@@H](C)c3ccccn3)c2c1 [P-0242, (S)-4-(6-(3,5-dimethylisoxazol-4-yl)-1-(1-(pyridin-2-yl)ethyl)-2-(trifluoromethyl)-1H-pyrrolo[3,2-b]pyridin-3-yl)-2-fluorobenzoic acid]
Second: Cc1noc(C)c1-c1cnc2c(-c3cc(C(=O)O)ccc3F)c(C(F)(F)F)n([C@@H](C)c3ccccn3)c2c1 [P-0238, (S)-3-(6-(3,5-dimethylisoxazol-4-yl)-1-(1-(pyridin-2-yl)ethyl)-2-(trifluoromethyl)-1H-pyrrolo[3,2-b]pyridin-3-yl)-4-fluorobenzoic acid]
The IC50 of the first is higher: 1000 to 8000 nM for the first, 0.1 to 1000 nM for the second. The second is the more potent here.

Cc1noc(C)c1-c1cnc2c(c1)c(-c1ccc(C(=O)O)cc1OC(F)(F)F)cn2-c1cc(F)ccc1F [P-0233, 4-(1-(2,5-difluorophenyl)-5-(3,5-dimethylisoxazol-4-yl)-1H-pyrrolo[2,3-b]pyridin-3-yl)-3-(trifluoromethoxy)benzoic acid] and Cc1noc(C)c1-c1cnc2c(c1)c(-c1ccc(C(=O)O)cc1OC(F)(F)F)cn2-c1ccc(F)cc1F [P-0232, 4-(1-(2,4-difluorophenyl)-5-(3,5-dimethylisoxazol-4-yl)-1H-pyrrolo[2,3-b]pyridin-3-yl)-3-(trifluoromethoxy)benzoic acid] fall in the same range of IC50: 0.1 to 1000 nM for the first, 0.1 to 1000 nM for the second.

Cc1noc(C)c1-c1cnc2c(c1)c(-c1ccc(C(=O)O)cc1OC(F)(F)F)cn2C(CC#N)C1CCCC1 (stereo not drawn) [P-0200, 4-(1-(2-cyano-1-cyclopentylethyl)-5-(3,5-dimethylisoxazol-4-yl)-1H-pyrrolo[2,3-b]pyridin-3-yl)-3-(trifluoromethoxy)benzoic acid] and Cc1noc(C)c1-c1cnc2c(c1)c(-c1ccc(C(=O)O)cc1OC(F)(F)F)cn2S(=O)(=O)C1CC1 [P-0202, 4-(1-(cyclopropylsulfonyl)-5-(3,5-dimethylisoxazol-4-yl)-1H-pyrrolo[2,3-b]pyridin-3-yl)-3-(trifluoromethoxy)benzoic acid] fall in the same range of IC50: 0.1 to 1000 nM for the first, 0.1 to 1000 nM for the second.

CCOc1cc(C(=O)O)cc(OCC)c1-n1cc(-c2ccc(F)cc2F)c2ncc(-c3c(C)noc3C)cc21 [P-0186, 4-(3-(2,4-difluorophenyl)-6-(3,5-dimethylisoxazol-4-yl)-1H-pyrrolo[3,2-b]pyridin-1-yl)-3,5-diethoxybenzoic acid] and CCOc1cc(C(=O)O)cc(OCC)c1-n1cc(-c2cnc(OC)nc2)c2ncc(-c3c(C)noc3C)cc21 [P-0201, 4-(6-(3,5-dimethylisoxazol-4-yl)-3-(2-methoxypyrimidin-5-yl)-1H-pyrrolo[3,2-b]pyridin-1-yl)-3,5-diethoxybenzoic acid] fall in the same range of IC50: 0.1 to 1000 nM for the first, 0.1 to 1000 nM for the second.

Cc1noc(C)c1-c1cnc2c(-c3cc(Cl)cc(C(=O)O)c3)c(C(F)(F)F)n([C@@H](C)c3ccccn3)c2c1 [P-0241, (S)-3-chloro-5-(6-(3,5-dimethylisoxazol-4-yl)-1-(1-(pyridin-2-yl)ethyl)-2-(trifluoromethyl)-1H-pyrrolo[3,2-b]pyridin-3-yl)benzoic acid] and Cc1noc(C)c1-c1cnc2c(-c3ccccc3)cn(-c3ccc(C(=O)O)cc3OC(F)(F)F)c2c1 [P-0196, 4-(6-(3,5-dimethylisoxazol-4-yl)-3-phenyl-1H-pyrrolo[3,2-b]pyridin-1-yl)-3-(trifluoromethoxy)benzoic acid] fall in the same range of IC50: 0.1 to 1000 nM for the first, 0.1 to 1000 nM for the second.

Cc1noc(C)c1-c1cnc2c(c1)c(-c1ccc(C(=O)O)cc1OC(F)(F)F)cn2-c1cnccc1C#N [P-0204, 4-(1-(4-cyanopyridin-3-yl)-5-(3,5-dimethylisoxazol-4-yl)-1H-pyrrolo[2,3-b]pyridin-3-yl)-3-(trifluoromethoxy)benzoic acid] and Cc1cnccc1-n1cc(-c2ccc(C(=O)O)cc2OC(F)(F)F)c2cc(-c3c(C)noc3C)cnc21 [P-0211, 4-(5-(3,5-dimethylisoxazol-4-yl)-1-(3-methylpyridin-4-yl)-1H-pyrrolo[2,3-b]pyridin-3-yl)-3-(trifluoromethoxy)benzoic acid] fall in the same range of IC50: 0.1 to 1000 nM for the first, 0.1 to 1000 nM for the second.

Cc1noc(C)c1-c1cnc2c(c1)c(-c1ccc(C(=O)O)cc1OC(F)(F)F)cn2-c1ncccc1C#N [P-0215, 4-(1-(3-cyanopyridin-2-yl)-5-(3,5-dimethylisoxazol-4-yl)-1H-pyrrolo[2,3-b]pyridin-3-yl)-3-(trifluoromethoxy)benzoic acid] and Cc1noc(C)c1-c1cnc2c(c1)c(-c1ccc(C(=O)O)cc1OC(F)(F)F)cn2-c1cccnc1 [P-0175, 4-(5-(3,5-dimethylisoxazol-4-yl)-1-(pyridin-3-yl)-1H-pyrrolo[2,3-b]pyridin-3-yl)-3-(trifluoromethoxy)benzoic acid] fall in the same range of IC50: 0.1 to 1000 nM for the first, 0.1 to 1000 nM for the second.

Cc1noc(C)c1-c1cnc2c(c1)c(-c1c(Cl)cc(C(=O)O)cc1OC(F)(F)F)cn2C(C1CC1)C1CC1 [P-0198, 3-chloro-4-(1-(dicyclopropylmethyl)-5-(3,5-dimethylisoxazol-4-yl)-1H-pyrrolo[2,3-b]pyridin-3-yl)-5-(trifluoromethoxy)benzoic acid] and Cc1noc(C)c1-c1cnc2c(c1)c(-c1ccc(C(=O)O)cc1OC(F)(F)F)cn2C1CCC(F)(F)CC1 [P-0227, 4-(1-(4,4-difluorocyclohexyl)-5-(3,5-dimethylisoxazol-4-yl)-1H-pyrrolo[2,3-b]pyridin-3-yl)-3-(trifluoromethoxy)benzoic acid] fall in the same range of IC50: 0.1 to 1000 nM for the first, 0.1 to 1000 nM for the second.

Cc1noc(C)c1-c1cnc2c(c1)c(-c1ccc(C(=O)O)cc1OC1CC1)cn2[C@@H](C)c1ccccn1 [P-0170, (S)-3-cyclopropoxy-4-(5-(3,5-dimethylisoxazol-4-yl)-1-(1-(pyridin-2-yl)ethyl)-1H-pyrrolo[2,3-b]pyridin-3-yl)benzoic acid] and Cc1noc(C)c1-c1cnc2c(c1)c(-c1cccc(C(=O)O)c1)cn2C(c1ccccn1)C1CCCC1 (stereo not drawn) [P-0015, 3-(1-(cyclopentyl(pyridin-2-yl)methyl)-5-(3,5-dimethylisoxazol-4-yl)-1H-pyrrolo[2,3-b]pyridin-3-yl)benzoic acid] fall in the same range of IC50: 0.1 to 1000 nM for the first, 0.1 to 1000 nM for the second.

Cc1noc(C)c1-c1cnc2c(c1)c(-c1ccc(C(=O)O)cc1OC(F)(F)F)cn2-c1ccccc1 [P-0188, 4-(5-(3,5-dimethylisoxazol-4-yl)-1-phenyl-1H-pyrrolo[2,3-b]pyridin-3-yl)-3-(trifluoromethoxy)benzoic acid] and Cc1noc(C)c1-c1cnc2c(c1)c(-c1ccc(C(=O)O)cc1OC(F)(F)F)cn2-c1ccccc1F [P-0223, 4-(5-(3,5-dimethylisoxazol-4-yl)-1-(2-fluorophenyl)-1H-pyrrolo[2,3-b]pyridin-3-yl)-3-(trifluoromethoxy)benzoic acid] fall in the same range of IC50: 0.1 to 1000 nM for the first, 0.1 to 1000 nM for the second.

Compared with Cc1noc(C)c1-c1cnc2c(-c3ccccc3)cn(-c3c(Cl)cccc3C#N)c2c1 [P-0207, 3-chloro-2-(6-(3,5-dimethylisoxazol-4-yl)-3-phenyl-1H-pyrrolo[3,2-b]pyridin-1-yl)benzonitrile], CCOc1cccc(C#N)c1-n1cc(-c2ccccc2)c2ncc(-c3c(C)noc3C)cc21 [P-0206, 2-(6-(3,5-dimethylisoxazol-4-yl)-3-phenyl-1H-pyrrolo[3,2-b]pyridin-1-yl)-3-ethoxybenzonitrile] is lower in IC50: 1000 to 8000 nM for the first, 0.1 to 1000 nM for the second. The second is the more potent here.

Cc1noc(C)c1-c1cnc2c(c1)c(-c1ccc(F)c(C(=O)O)c1)cn2C(c1ccccn1)C1CCCC1 (stereo not drawn) [P-0016, 5-(1-(cyclopentyl(pyridin-2-yl)methyl)-5-(3,5-dimethylisoxazol-4-yl)-1H-pyrrolo[2,3-b]pyridin-3-yl)-2-fluorobenzoic acid] and Cc1noc(C)c1-c1cnc2c(c1)c(-c1ccc(C(=O)O)cc1OC(F)(F)F)cn2-c1ccnc(C(C)C)c1 [P-0203, 4-(5-(3,5-dimethylisoxazol-4-yl)-1-(2-isopropylpyridin-4-yl)-1H-pyrrolo[2,3-b]pyridin-3-yl)-3-(trifluoromethoxy)benzoic acid] fall in the same range of IC50: 0.1 to 1000 nM for the first, 0.1 to 1000 nM for the second.
